Assay results: US4782074A (priority 1987, dated 1988)

Tests used:
Assay type in all cases: in vivo
[1] = test system: Phytophthora infestans; assay: whole plant or invertebrate; conditions: in Solanum lycopersicum, 168 h, read-out: % Control TLB
[2] = test system: Plasmopara viticola; assay: Grape Downy Mildew control (Example E); conditions: detached grape leaves, cultivar Emperor, relative to untreated check plants, read-out: % Control GDM
Procedure: The compounds of the invention were tested for the control of the Grape Downy Mildew organism Plasmopara viticola. Detached leaves, between 70 mm and 85 mm in diameter, 7-week-old Vitis vinifera cultivar Emperor grape seedlings were used as hosts. The leaves were sprayed with a 250-ppm solution of the test compound in acetone. The sprayed leaves were dried, inoculated with a spore suspension of the organism, placed in a humid environmental chamber and incubated at 66° F. to 68° F. and about 100% relative humidity. After incubation for 2 days, the plants were then held in a greenhouse 7 to 9 days; then the amount of disease control was determined. The percent disease control provided by a given test compound was based on the percent disease reduction relative to untreated check plants.

[3] = test system: Septoria apii; assay: whole plant or invertebrate; conditions: 336 h, read-out: % Control CLB
[4] = test system: Alternaria solani conidia; assay: Tomato Early Blight control (Example D); conditions: 288 h, tomato seedlings, Bonny Best, inoculated 1 day after spray, relative to untreated check plants, read-out: % Control TEB
Procedure: Compounds of the invention were tested for the control of the Tomato Early Blight organism Alternaria solani conidia. Tomato (variety Bonny Best) seedlings of 6- to 7-weeks old were used. The tomato plants were sprayed with a 250-ppm solution of the test compound in an acetone-and-water solution containing a small amount of a nonionic emulsifier. The sprayed plants were inoculated 1 day later with the organism, placed in the environmental chamber and incubated at 66° F. to 68° F. and 100% relative humidity for 24 hours. Following the incubation, the plants were maintained in a greenhouse for about 12 days. Percent disease control was based on the percent disease development on untreated check plants.

[5] = test system: Erysiphe polygoni; assay: Bean Powdery Mildew control (Example A); conditions: 240 h, seedling bean plants, inoculated 1 day after spray, 10 days, relative to untreated check plants, read-out: % Control BPM
Procedure: The compounds of the invention were tested for the control of the Bean Powdery Mildew organism Erysiphe polygoni. Seedling bean plants were sprayed with a 250-ppm solution of the test compound in acetone, water and a nonionic emusifier. The sprayed plants were then inoculated 1 day later with the organism. The plants were maintained for 10 days at temperatures of 68° F. at night with daytime temperatures of 72° F. to 80° F.; relative humidity was maintained at 40% to 60%. The percent disease control provided by a given test compound was based on the percent disease reduction relative to the untreated check plants.

[6] = test system: Piricularia oryzae; assay: whole plant or invertebrate; conditions: Pyricularia oryzae, read-out: % Control RB
[7] = test system: Uromyces phaseoli tipica; assay: Leaf Rust / Bean Rust control (Example F); conditions: 336 h, pinto bean plants, rated after about 14 days, relative to untreated check plants, read-out: % Control BR
Procedure: The Leaf Rust test was made using pinto beans. The pathogen was Uromyces phaseoli tipica. The pinto bean plants were sprayed with a 250-ppm solution of the test compound in an acetone-water mixture containing a nonionic emulsifier. The treated plants were inoculated thereafter with the pathogen and then incubated in an environmental chamber for approximately 20 hours at 100% relative humidity and a temperature of 68° F. to 70° F. The plants were then removed from the chamber, allowed to dry, and then maintained in a greenhouse at a 60% to 80% relative humidity. The rate of infection on the leaves was made after about 14 days. The percent disease control provided by a given test compound was based on the percent disease reduction relative to untreated check plants.

| SMILES | pest or weed control at 250 ppm [1] [%] | pest or weed control at 250 ppm [2] [%] | pest or weed control at 250 ppm [3] [%] | pest or weed control at 250 ppm [4] [%] | pest or weed control at 250 ppm [5] [%] | pest or weed control at 625 ppm [6] [%] | pest or weed control at 250 ppm [7] [%] |
| --- | --- | --- | --- | --- | --- | --- | --- |
| CCCN(CCOc1c(Cl)cc(Cl)cc1Cl)C(=O)c1cncn1C [Compound 12, N-(n-propyl), N-(1-methyl-5-imidazolylcarbonyl)ethanolamine 2,4,6-trichlorophenylether] | 18 | 19 | 45 | 36 | 100 | 0 | 29 |
| CCCN(CCOc1ccc(Cl)cc1Cl)C(=O)c1cccnc1 [Compound 8] | 0 | 0 | 45 | 40 | 50 | 0 | 3 |
| CCCN(CCOc1c(C)cc(C)cc1C)C(=O)c1cncnc1 [Compound 16] | 0 | 7 | 38 | 83 | 50 | 36 | 0 |
| CCOCCN(CCOc1c(Cl)cc(Cl)cc1Cl)C(=O)c1cccnc1 [Compound 33] | 0 | 18 | 54 | 52 | 88 | 0 | 0 |
| CCN(CCOc1c(Cl)cc(Cl)cc1Cl)C(=O)c1cnccn1 [Compound 36] | 0 | 45 | 50 | 0 | 75 | 0 | 0 |
| CCCN(CCCOc1c(Cl)cc(Cl)cc1Cl)C(=O)c1cccnc1 [Compound 19] | 10 | 30 | 38 | 0 | 70 | 96 | 0 |
| CCCN(CCOc1c(C)cc(C)cc1C)C(=O)c1cccnc1 [Compound 14] | 0 | 0 | 85 | 67 | 100 | 64 | 0 |
| CCCN(CCCc1ccc(Cl)cc1Cl)C(=O)c1cccnc1 [Compound 27] | 0 | 0 | 35 | 57 | 82 | 71 | 3 |
| CCOCCN(CCOc1c(Cl)cc(Cl)cc1Cl)C(=O)c1cnccn1 [Compound 34] | 0 | 7 | 15 | 0 | 0 | 38 | 0 |
| CCCN(CCOc1c(Cl)cc(Cl)cc1Cl)C(=O)c1ccncc1 [Compound 10] | 11 | 9 | 0 | 32 | 0 | 0 | 29 |
| CCCN(CCOc1c(Cl)cc(Cl)cc1Cl)C(=S)c1cccnc1 [Compound 17, N-(n-propyl), N-(3-pyridylthiocarbonyl)ethanolamine 2,4,6-trichlorophenylether] | 0 | 4 | 62 | 87 | 100 | 100 | 0 |
| C=CCN(CCOc1c(Cl)cc(Cl)cc1Cl)C(=O)c1cccnc1 [Compound 32, N-allyl, N-(3-pyridylcarbonyl)ethanolamine 2,4,6-trichlorophenylether] | 0 | 41 | 0 | 0 | 4 | 0 | 0 |
| O=C(c1cccnc1)N(CCO)CCOc1c(Cl)cc(Cl)cc1Cl [Compound 30] | 7 | 54 | 32 | 17 | 33 | 0 | 0 |
